Laboratory results from ChEMBL document CHEMBL2150899, “Compound instability in dimethyl sulphoxide, case studies with 5-aminopyrimidines and the implications for compound storage and screening” (Bioorg Med Chem Lett, 2012).

Legend:
Assay type in all cases: physicochemical
[1] = Drug degradation in DMSO assessed as 5-aminobarbiturate formation by UV-Vis spectrophotometry
[2] = Drug degradation in DMSO assessed as murexide by UV-Vis spectrophotometry
[3] = Drug degradation in DMSO
[4] = Drug degradation in DMSO assessed as 2,6,8-triaminopyrimido[5,4-g]pteridin-4(3H)-one formation at 10 mM incubated over 2 months by UV-Vis spectrophotometry; conditions: 1461 h, 10000 µM
[5] = Drug degradation in DMSO assessed as 2,6-diamino-5-(2,6-diamino-4-oxopyrimidin-5(4H)-ylideneamino)pyrimidin-4(3H)-one formation at 10 mM incubated over 2 months by UV-Vis spectrophotometry; conditions: 1461 h, 10000 µM
[6] = Drug degradation in DMSO assessed as 2,6-diamino-5-(2,6-diamino-4-oxopyrimidin-5(4H)-ylideneamino)pyrimidin-4(3H)-one formation after 11 days by UV-Vis spectrophotometry; conditions: 264 h
[7] = Drug degradation in DMSO assessed as oxidation after two months; conditions: 1461 h
[8] = Drug degradation in DMSO assessed as oxidation after overnight incubation
[9] = Drug degradation in DMSO assessed as ammonium cation formation after 2 days by NMR spectroscopy; conditions: 48 h
[10] = Drug degradation in alkalised DMSO assessed as 2,6,8-triaminopyrimido[5,4-g]pteridin-4(3H)-one formation after 24 hrs
[11] = Drug degradation in DMSO assessed as 2,6,8-triaminopyrimido[5,4-g]pteridin-4(3H)-one formation after 11 days by UV-Vis spectrophotometry; conditions: 264 h
[12] = Drug degradation in DMSO assessed as 2,6,8-triaminopyrimido[5,4-g]pteridin-4(3H)-one after 87 days by NMR spectroscopy; conditions: 2088 h
[13] = Drug degradation in DMSO after 7 days by NMR spectroscopy; conditions: 168 h
[14] = Drug degradation in DMSO assessed as 2,6-diamino-5-(2,6-diamino-4-oxopyrimidin-5(4H)-ylideneamino)pyrimidin-4(3H)-one formation after 1 day by NMR spectroscopy; conditions: 24 h
[15] = Drug degradation in acidified DMSO
[16] = Drug degradation in alkalised DMSO assessed as 2,6-diamino-5-(2,6-diamino-4-oxopyrimidin-5(4H)-ylideneamino)pyrimidin-4(3H)-one formation
[17] = Drug degradation in DMSO assessed as pyrimido[5,4-g]pteridine-2,4,6,8-tetraamine formation by UV-Vis spectrophotometry
[18] = Drug degradation in DMSO assessed as pyrimido[4,5-g]pteridine-2,4,7,9-tetraamine formation by UV-Vis spectrophotometry
[19] = Drug degradation in DMSO assessed as ammonium cation formation by NMR spectroscopy
[20] = Drug degradation in DMSO by UV-Vis spectrophotometry
[21] = Drug degradation in DMSO assessed as oxidation
[22] = Drug degradation in DMSO assessed as methoxy group hydrolysis by NMR spectrophotometry
[23] = Drug degradation in DMSO by NMR spectrophotometry
[24] = Drug degradation in DMSO assessed as bis-alloxazine and pyrimido[4,5-g]pteridine-2,4,7,9(1H,3H,6H,8H)-tetraone formation after 3 months; conditions: 2191.5 h
[25] = Drug degradation in DMSO assessed as pyrimido[5,4-g]pteridine-4,6(3H,7H)-dione formation after 2 months; conditions: 1461 h
[26] = Drug degradation in DMSO after 2 months by UV-Vis spectrophotometry; conditions: 1461 h
[27] = Drug degradation in DMSO assessed as bis-alloxazine and pyrimido[4,5-g]pteridine-2,4,7,9(1H,3H,6H,8H)-tetraone formation

Measured: Drug degradation

Nc1c[nH]c(=O)[nH]c1=O
Active: [1] | [2] | [3]

Nc1cc(O)nc(N)n1
Not Active: [3]

Nc1nc(N)c(N)c(O)n1
Active: [4] | [5] | [6] | [7] | [8] | [9] | [10] | [11] | [12] | [13] | [14] | [15] | [3] | [16]

Nc1nc(N)c(N)c(N)n1
Active: [17] | [8] | [18] | [3]

NC1C(=O)NC(=O)NC1=O
Active: [19] | [2] | [3]

Nc1nc(S)[nH]c(=O)c1N
Active: [20] | [19] | [3]

COc1nc(N)nc(OC)c1N
Active: [21] | [22] | [3]

Nc1nc(Cl)c(N)c(Cl)n1
Active: [23] | [20] | [21] | [3]

Nc1c[nH]c(=O)nc1N
Active: [24] | [21] | [3]

Nc1ncnc(O)c1N
Active: [25] | [3]

Nc1ncnc(N)c1N
Not Active: [20] | [26]

Nc1c(Cl)ncnc1Cl
Not Active: [21]

Nc1[nH]c(=O)[nH]c(=O)c1N
Active: [3] | [27]
